One may read the IC50 as the concentration that inhibits the measured activity by half. A higher IC50 goes with a need for much substance. In general, pKa refers to the pH at which an ionisable group is half protonated. Higher therefore signals a weaker acid or stronger base. A word on the EC50: it is the midpoint of the concentration-response curve.

The source of these data is ChEMBL document CHEMBL1135397, “Novel 1-hydroxyazole bioisosteres of glutamic acid. Synthesis, protolytic properties, and pharmacology” (J Med Chem, 2002).

Where only a bound is given, the exact number is not on record here.

In data set [1] the target is Excitatory amino acid transporter 1 (Homo sapiens, UniProt P43003). Briefly: Binding affinity for Excitatory amino acid transporter 1 (EAAT-1) in Glu uptake system.
Chain of Excitatory amino acid transporter 1 (P43003 whole entry): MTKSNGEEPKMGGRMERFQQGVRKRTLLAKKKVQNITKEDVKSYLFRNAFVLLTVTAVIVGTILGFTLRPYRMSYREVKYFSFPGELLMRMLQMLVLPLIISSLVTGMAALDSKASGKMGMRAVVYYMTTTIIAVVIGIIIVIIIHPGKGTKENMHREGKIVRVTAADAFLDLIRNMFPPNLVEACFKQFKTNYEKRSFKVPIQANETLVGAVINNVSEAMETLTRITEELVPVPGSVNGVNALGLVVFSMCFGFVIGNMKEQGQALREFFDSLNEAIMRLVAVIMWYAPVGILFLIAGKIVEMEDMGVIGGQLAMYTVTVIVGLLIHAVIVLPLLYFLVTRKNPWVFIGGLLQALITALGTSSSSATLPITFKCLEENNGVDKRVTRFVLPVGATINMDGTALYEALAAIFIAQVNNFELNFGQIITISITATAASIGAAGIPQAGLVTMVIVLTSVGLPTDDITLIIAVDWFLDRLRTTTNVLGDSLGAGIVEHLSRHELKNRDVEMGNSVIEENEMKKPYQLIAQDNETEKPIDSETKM
Data set [2] in a line: physchem.
The target in another data set is Glutamate NMDA receptor. The experiment in a line: Binding affinity for N-methyl-D-aspartate glutamate receptor (NMDA) using [3H]- CPP. The format is protein-complex assay, Rattus norvegicus.
A short description of data set [3]: physchem. This is another data set of the same source.
Data set [4] has as its target Glutamate receptor ionotropic, kainate. The experiment in a line: Binding affinity for Ionotropic glutamate receptor using [3H]- kainic acid. It counts as protein-complex assay, Rattus norvegicus.
Data set [5] has as its target T1, Excitatory amino acid transporter 3 (Homo sapiens, UniProt P43005).
T1 sequence (P43005 whole entry): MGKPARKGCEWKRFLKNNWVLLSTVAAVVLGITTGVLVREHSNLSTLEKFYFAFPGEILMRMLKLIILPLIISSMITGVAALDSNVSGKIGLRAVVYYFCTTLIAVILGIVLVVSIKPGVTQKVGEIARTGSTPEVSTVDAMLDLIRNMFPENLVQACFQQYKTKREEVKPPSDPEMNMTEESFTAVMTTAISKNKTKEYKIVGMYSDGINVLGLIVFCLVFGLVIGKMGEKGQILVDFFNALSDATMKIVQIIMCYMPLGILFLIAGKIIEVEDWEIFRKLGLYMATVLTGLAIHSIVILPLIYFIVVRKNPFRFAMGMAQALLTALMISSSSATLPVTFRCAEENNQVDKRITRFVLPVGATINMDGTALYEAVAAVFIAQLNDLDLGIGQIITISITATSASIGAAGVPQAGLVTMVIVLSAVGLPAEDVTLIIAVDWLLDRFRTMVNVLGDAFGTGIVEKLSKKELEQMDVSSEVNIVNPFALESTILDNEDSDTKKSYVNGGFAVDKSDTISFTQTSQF
Briefly: Binding affinity for Excitatory amino acid transporter 3 (EAAT-3) in Glu uptake system.

Data set [6] is described as follows: physchem. This is another data set of the same source.
The species entered for a further data set is Rattus norvegicus. Briefly: EC50 value was measured in rat cortical wedge preparation. The format is functional.
The target of data set [7] is Glutamate receptor ionotropic, AMPA (Rattus norvegicus, UniProt P19490+P19491+P19492+P19493).
A short description of data set [8]: Measure of synaptosomal Glu uptake system using [3H]- -D-aspartic acid as radioligand.
Data set [9] deals with Excitatory amino acid transporter 2 (Homo sapiens, UniProt P43004). The experiment in a line: Binding affinity for Excitatory amino acid transporter 2 (EAAT-2) in Glu uptake system.
Chain of Excitatory amino acid transporter 2 (P43004 whole entry): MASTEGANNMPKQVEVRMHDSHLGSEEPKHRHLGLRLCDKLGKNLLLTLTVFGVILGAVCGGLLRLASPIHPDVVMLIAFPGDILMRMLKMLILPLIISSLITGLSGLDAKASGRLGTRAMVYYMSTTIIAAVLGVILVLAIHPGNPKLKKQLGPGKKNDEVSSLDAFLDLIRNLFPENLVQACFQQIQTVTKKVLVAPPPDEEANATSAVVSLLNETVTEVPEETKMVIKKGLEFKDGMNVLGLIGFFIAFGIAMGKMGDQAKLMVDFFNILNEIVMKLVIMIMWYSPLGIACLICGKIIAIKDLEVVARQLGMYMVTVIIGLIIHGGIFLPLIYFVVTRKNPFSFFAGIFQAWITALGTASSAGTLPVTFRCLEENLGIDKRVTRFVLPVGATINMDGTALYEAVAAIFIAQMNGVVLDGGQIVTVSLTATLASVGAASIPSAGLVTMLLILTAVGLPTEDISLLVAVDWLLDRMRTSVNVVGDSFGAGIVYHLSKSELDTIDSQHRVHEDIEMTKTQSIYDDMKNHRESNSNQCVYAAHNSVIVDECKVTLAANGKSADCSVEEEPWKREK
Data set [10] can be described thus: Measure of synaptosomal Glu uptake system using [3H]- -D-aspartic acid as radioligand. It counts as functional.

As to `NC(Cc1ccnn1O)C(=O)O` (stereo not drawn), the IC50 was greater than 1000 µM in data set [1]; greater than 100 µM on Glutamate NMDA receptor; greater than 100 µM in data set [4]; greater than 1000 µM in [5]; 2.7 µM in data set [7]; greater than 200 µM in data set [8]. This compound also gave an IC50 in data set [9] of 430 µM. Also, the pKa in the data set “physchem [2]” turned out to be 1.78; in “physchem [3]”, 9.48; in “physchem [6]”, 5.78. The EC50 in the data set listed under Rattus norvegicus came to 280 µM.
For the compound `NC(Cc1cnnn1O)C(=O)O` (stereo not drawn), the IC50 in [1] is 100 µM; on Glutamate NMDA receptor, greater than 100 µM; in [4], 47 µM; in data set [5], greater than 1000 µM; in data set [7], 0.15 µM; in data set [8] it was 93 µM. In addition, in data set [9], the half-inhibitory concentration (IC50) was 300 µM. The compound also had an EC50 in the data set listed under Rattus norvegicus greater than 1000 µM.
As for `Cc1cnc(CC(N)C(=O)O)n1O` (stereo not drawn), the half-maximal inhibitory concentration (IC50) in [1] was greater than 1000 µM; on Glutamate NMDA receptor it was greater than 100 µM; in data set [4], greater than 100 µM; in [5], greater than 1000 µM; in [7], greater than 100 µM; in data set [8] it was greater than 200 µM. Moreover, the IC50 in [9] is greater than 1000 µM. In the data set filed under Rattus norvegicus, this compound yielded an EC50 greater than 1000 µM.
In the case of `NC(Cc1conc1O)C(=O)O` (stereo not drawn), the half-inhibitory concentration (IC50) in data set [1] was 270 µM; at Glutamate NMDA receptor it was greater than 100 µM; in [4] it was greater than 100 µM; in [5], greater than 1000 µM; in [7], 0.27 µM; in data set [8] it was greater than 200 µM. This compound displayed a concentration for half-maximal inhibition (IC50) in data set [9] of 240 µM. The compound also displayed an EC50 in the data set filed under Rattus norvegicus of 900 µM.
Turning to `Cc1onc(O)c1CC(N)C(=O)O` [(R,S)-AMPA], the concentration for half-maximal inhibition (IC50) in data set [1] was greater than 1000 µM; in data set [5], greater than 1000 µM; in data set [10], greater than 200 µM; in data set [9] it was greater than 1000 µM. The pKa came out at 1.94 in the data set “physchem [2]” and 5.12 in “physchem [6]”.
As for `Cc1cnn(O)c1CC(N)C(=O)O` (stereo not drawn), the half-inhibitory concentration (IC50) is greater than 1000 µM in [1]; greater than 100 µM at Glutamate NMDA receptor; greater than 100 µM in data set [4]; greater than 1000 µM in [5]; 2.6 µM in [7]; greater than 200 µM in data set [8]. For the same compound, in data set [9], the IC50 is greater than 1000 µM. In addition, the pKa in “physchem [2]” was 2.05; in “physchem [3]”, 9.81; in “physchem [6]”, 5.89. This compound also returned an EC50 in the data set filed under Rattus norvegicus of 586 µM.
Take `Cc1ncc(CC(N)C(=O)O)n1O` (stereo not drawn): the IC50 in data set [1] is greater than 1000 µM; on Glutamate NMDA receptor, greater than 100 µM; in [4], greater than 100 µM; in data set [5], greater than 1000 µM; in data set [7] it was greater than 100 µM; in data set [8], greater than 200 µM. Also, the IC50 in [9] is greater than 1000 µM. Besides, the concentration giving a half-maximal response (EC50) in the data set filed under Rattus norvegicus was greater than 1000 µM.
With `Cc1nnn(O)c1CC(N)C(=O)O` (stereo not drawn), the IC50 was greater than 1000 µM in [1]; greater than 100 µM on Glutamate NMDA receptor; 90 µM in data set [4]; greater than 1000 µM in [5]; 0.13 µM in data set [7]; greater than 200 µM in data set [8]. In addition, the IC50 in data set [9] was 490 µM. The pKa in “physchem [2]” came to 1.48; in “physchem [3]”, 9.24; in the data set “physchem [6]” it was 5.07. The EC50 in the data set filed under Rattus norvegicus amounted to 15 µM.
`NC(Cc1nccn1O)C(=O)O` (stereo not drawn): the IC50 is greater than 1000 µM in data set [1]; greater than 100 µM at Glutamate NMDA receptor; greater than 100 µM in data set [4]; greater than 1000 µM in [5]; greater than 100 µM in [7]; greater than 200 µM in data set [8]. Also, the IC50 in data set [9] was greater than 1000 µM. The 50% effective concentration (EC50) in the data set filed under Rattus norvegicus was greater than 1000 µM.
Turning to `Cc1ncn(O)c1CC(N)C(=O)O` (stereo not drawn), the concentration for half-maximal inhibition (IC50) is greater than 1000 µM in data set [1]; greater than 100 µM on Glutamate NMDA receptor; greater than 100 µM in [4]; greater than 1000 µM in data set [5]; greater than 100 µM in [7]; greater than 200 µM in [8]. In data set [9], this compound returned an IC50 greater than 1000 µM. Besides, the values for the pKa in “physchem [2]”, in the data set “physchem [3]” and in the data set “physchem [6]” were 2.81, 10.2 and 8.82, respectively. The compound further returned a 50% effective concentration (EC50) in the data set listed under Rattus norvegicus greater than 1000 µM.
With `NC(Cc1cncn1O)C(=O)O` (stereo not drawn), the 50% inhibitory concentration (IC50) in data set [1] was greater than 1000 µM; on Glutamate NMDA receptor, greater than 100 µM; in data set [4], greater than 100 µM; in data set [5], greater than 1000 µM; in [7] it was greater than 100 µM; in data set [8], greater than 200 µM. This compound also gave a concentration for half-maximal inhibition (IC50) in data set [9] greater than 1000 µM. Moreover, the concentration giving a half-maximal response (EC50) in the data set filed under Rattus norvegicus was greater than 1000 µM.
